Columns and labels:
human TLR 8 protein = molecular target: T1, human TLR 8 protein (Homo sapiens, UniProt Q9NR97); experiment: TLR8 stimulation determined using HEK-Blue Detection; assay type: cell-based; details: HEK-Blue hTLR8 cells, 16 hr, relative to Resiquimod or Motolimod maximum
T1 construct: expressed in transfected cells; host or cells: HEK293 (HEK-Blue hTLR8)
T1 sequence (Q9NR97 27-1041): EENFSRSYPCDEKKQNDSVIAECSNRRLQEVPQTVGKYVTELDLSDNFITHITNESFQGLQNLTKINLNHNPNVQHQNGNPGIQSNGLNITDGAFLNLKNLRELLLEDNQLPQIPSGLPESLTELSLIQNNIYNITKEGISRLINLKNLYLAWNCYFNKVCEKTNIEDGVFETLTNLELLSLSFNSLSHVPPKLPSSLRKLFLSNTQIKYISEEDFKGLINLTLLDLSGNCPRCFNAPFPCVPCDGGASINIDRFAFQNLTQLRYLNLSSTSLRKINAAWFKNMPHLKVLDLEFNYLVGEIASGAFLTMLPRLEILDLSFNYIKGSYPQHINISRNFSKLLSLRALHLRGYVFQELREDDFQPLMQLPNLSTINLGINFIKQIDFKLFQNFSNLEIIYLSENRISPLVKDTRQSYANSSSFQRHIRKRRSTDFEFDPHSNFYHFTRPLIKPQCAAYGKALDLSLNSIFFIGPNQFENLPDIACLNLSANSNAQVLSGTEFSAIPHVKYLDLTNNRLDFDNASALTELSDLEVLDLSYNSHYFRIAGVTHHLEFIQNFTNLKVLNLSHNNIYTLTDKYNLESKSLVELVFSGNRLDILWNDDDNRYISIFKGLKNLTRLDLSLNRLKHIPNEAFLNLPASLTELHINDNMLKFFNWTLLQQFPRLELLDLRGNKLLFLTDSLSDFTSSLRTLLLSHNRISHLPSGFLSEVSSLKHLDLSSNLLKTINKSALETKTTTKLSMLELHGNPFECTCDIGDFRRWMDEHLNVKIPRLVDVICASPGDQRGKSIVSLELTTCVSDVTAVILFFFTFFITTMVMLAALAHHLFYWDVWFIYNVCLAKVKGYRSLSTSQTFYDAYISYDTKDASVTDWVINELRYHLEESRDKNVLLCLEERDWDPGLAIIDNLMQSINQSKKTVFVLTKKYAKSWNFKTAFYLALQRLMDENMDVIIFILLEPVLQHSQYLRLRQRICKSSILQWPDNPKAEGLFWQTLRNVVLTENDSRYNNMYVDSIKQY
Summary of the method: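 HEK-Blue hTLR8 cells with NF-κB/AP-1-driven SEAP reporter, 40000 cells/well, treated with 10-point dilutions (1 nM-10 uM final, 0.1% DMSO) for 16 hr at 37° C. SEAP read as OD 620-655 nm. EC50 derived from percent of maximum activation set by Resiquimod or Motolimod.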

human TLR7 = molecular target: T2, human TLR7 (Homo sapiens, UniProt Q9NYK1); experiment: TLR7 stimulation determined using HEK-Blue Detection; assay type: cell-based; design: expressed in transfected cells; host or cells: HEK293 (HEK-Blue hTLR7); details: HEK-Blue hTLR7 cells, HEK-Blue Detection (A77-A124), 16 hr, relative to Resiquimod maximum
T2 sequence (Q9NYK1 27-1049): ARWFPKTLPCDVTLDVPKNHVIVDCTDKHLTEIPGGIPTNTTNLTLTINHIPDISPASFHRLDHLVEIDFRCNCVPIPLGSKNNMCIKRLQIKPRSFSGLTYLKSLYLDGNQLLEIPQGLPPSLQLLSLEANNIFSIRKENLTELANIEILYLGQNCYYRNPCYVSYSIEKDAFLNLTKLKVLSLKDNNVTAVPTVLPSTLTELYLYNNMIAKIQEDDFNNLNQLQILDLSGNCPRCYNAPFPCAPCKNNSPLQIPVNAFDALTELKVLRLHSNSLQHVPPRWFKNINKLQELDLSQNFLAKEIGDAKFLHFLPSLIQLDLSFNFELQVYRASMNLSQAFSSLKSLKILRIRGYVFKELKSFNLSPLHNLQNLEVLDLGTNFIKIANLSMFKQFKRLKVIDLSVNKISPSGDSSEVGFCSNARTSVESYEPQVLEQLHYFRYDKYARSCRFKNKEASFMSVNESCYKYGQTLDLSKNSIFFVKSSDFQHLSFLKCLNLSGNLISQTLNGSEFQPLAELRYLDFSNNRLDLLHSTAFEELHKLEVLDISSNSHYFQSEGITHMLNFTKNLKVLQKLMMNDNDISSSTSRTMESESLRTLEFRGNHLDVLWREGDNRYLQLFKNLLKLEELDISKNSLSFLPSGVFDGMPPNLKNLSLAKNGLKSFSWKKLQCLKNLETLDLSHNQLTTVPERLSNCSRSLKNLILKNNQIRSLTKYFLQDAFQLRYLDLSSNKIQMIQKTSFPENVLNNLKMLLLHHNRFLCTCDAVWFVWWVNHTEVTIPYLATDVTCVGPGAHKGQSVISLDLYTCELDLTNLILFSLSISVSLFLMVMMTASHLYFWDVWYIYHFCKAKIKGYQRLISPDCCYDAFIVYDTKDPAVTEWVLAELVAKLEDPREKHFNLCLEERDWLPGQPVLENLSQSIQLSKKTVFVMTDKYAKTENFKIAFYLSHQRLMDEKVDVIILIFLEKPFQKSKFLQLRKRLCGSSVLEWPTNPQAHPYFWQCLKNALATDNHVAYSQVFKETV
Summary of the method: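 HEK-Blue hTLR7 cells (HEK293 with NF-κB/AP-1-driven SEAP reporter), 40000 cells/well, treated with 10-point dilutions from 0.04 nM to 10 μM final in 0.1% DMSO for 16 h at 37° C. SEAP read as OD 620-655 nm; EC50 derived from % of maximum activation with resiquimod.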

EC50 (human TLR 8 protein)	EC50 (human TLR7)	SMILES
69 nM	10 nM	CCCC(CCO)Oc1nc(N)c2ncc(Cc3ccc(OCCNC)nc3)n2n1 (stereo not drawn) [Compound A79, 3-((4-amino-7-((6-(2-(methylamino)ethoxy)pyridin-3 yl)methyl)imidazo[2,1-f][1,2,4]triazin-2-yl)oxy)hexan-1-ol]
112 nM	8.9 nM	CCC[C@H](C)Oc1nc(N)c2ncc(Cc3ccc(OCCNC)nc3)n2n1 [Compound A90, (S)-7-((6-(2-(methylamino)ethoxy)pyridin-3-yl)methyl)-2-(pentan-2-yloxy)imidazo[2,1-f][1,2,4]triazin-4-amine]
6250 nM	310 nM	CCCC(CCO)Oc1nc(N)c2ncc(Cc3ccc(OCCNC)nc3)n2n1 (single isomer, unassigned) [Compound A81, (R or S) 3-((4-amino-7-((6-(2-(methylamino)ethoxy)pyridin-3-yl)methyl)imidazo[2,1-f][1,2,4]triazin-2-yl)oxy)hexan-1-ol]
293 nM	19.2 nM	CCCC(C)Oc1nc(N)c2ncc(Cc3ccc(OCCNC)nc3)n2n1 (stereo not drawn) [Compound A77, 7-((6-(2-(methylamino)ethoxy)pyridin-3-yl)methyl)-2-(pentan-2-yloxy)imidazo[2,1-f][1,2,4]triazin-4-amine]
47 nM	2.4 nM	CCCC(CCO)Oc1nc(N)c2ncc(Cc3ccc(OCCNC)c(C)c3)n2n1 (single isomer, unassigned) [Compound A103, (R or S)-3-((4-amino-7-(3-methyl-4-(2-(methylamino)ethoxy)benzyl)imidazo[2,1-f][1,2,4]triazin-2-yl)oxy)hexan-1-ol]
22 nM	5 nM	CCCC(CCO)Oc1nc(N)c2ncc(Cc3ccc(OCCNC)nc3)n2n1 (single isomer, unassigned) [Compound A82, (S or R) 3-((4-amino-7-((6-(2-(methylamino)ethoxy)pyridin-3-yl)methyl)imidazo[2,1-f][1,2,4]triazin-2-yl)oxy)hexan-1-ol]
